Results: ChEMBL document CHEMBL4359907, “Scalable and cost-effective tosylation-mediated synthesis of antifungal and fungal diagnostic 6″-Modified amphiphilic kanamycins” (Eur J Med Chem, 2019)
Converted amounts (≈) assume the structure as drawn.

Assays:
Staphylococcus aureus [1] = test: Antibacterial activity against Staphylococcus aureus ATCC 25923 incubated for 18 hrs by two fold dilution method; assay type: functional; conditions: ATCC 25923, 18 h
Diutina rugosa = test: Antifungal activity against Candida rugosa 95-967 incubated for 24 to 36 hrs by two fold dilution method; assay type: functional
Cryptococcus neoformans [2] = test: Antifungal activity against Cryptococcus neoformans VR-54 incubated for 24 to 36 hrs by two fold dilution method; assay type: functional
Staphylococcus aureus [3] = test: Antibacterial activity against methicillin-resistant Staphylococcus aureus ATCC 33591 incubated for 18 hrs by two fold dilution method; assay type: functional; conditions: ATCC 33591, 18 h
Candida albicans [4] = test: Antifungal activity against Candida albicans B-311 incubated for 24 to 36 hrs by two fold dilution method; assay type: functional
Candida tropicalis = test: Antifungal activity against Candida tropicalis 95-41 incubated for 24 to 36 hrs by two fold dilution method; assay type: functional
Candida albicans [5] = test: Antifungal activity against azole-susceptible Candida albicans MYA2876 incubated for 24 to 36 hrs by two fold dilution method; assay type: functional
Rhodotorula mucilaginosa = test: Antifungal activity against Rhodotorula pilimanae ATCC 26423 incubated for 24 to 36 hrs by two fold dilution method; assay type: functional
Candida parapsilosis = test: Antifungal activity against azole-resistant Candida parapsilosis Cas08-0490 incubated for 24 to 36 hrs by two fold dilution method; assay type: functional; conditions: Lodderomyces parapsilosis
Escherichia coli = test: Antibacterial activity against Escherichia coli ATCC 25922 incubated for 18 hrs by two fold dilution method; assay type: functional; conditions: ATCC 25922, 18 h
Cryptococcus neoformans [6] = test: Antifungal activity against Cryptococcus neoformans H99 incubated for 24 to 36 hrs by two fold dilution method; assay type: functional
Candida albicans [7] = test: Antifungal activity against azole-resistant Candida albicans 64124 incubated for 24 to 36 hrs by two fold dilution method; assay type: functional
Fusarium graminearum = test: Antifungal activity against Fusarium graminearum B4-5A incubated for 24 to 36 hrs by two fold dilution method; assay type: functional
Staphylococcus aureus [8] = test: Antibacterial activity against methicillin-resistant Staphylococcus aureus ATCC 43300 incubated for 18 hrs by two fold dilution method; assay type: functional; conditions: ATCC 43300, 18 h
HeLa = test: Cytotoxicity against human HeLa cells assessed as reduction in cell viability incubated for 24 hrs by MTT assay; assay type: cell-based

Structure (SMILES) | MIC (Staphylococcus aureus [1]) | MIC (Diutina rugosa) | MIC (Cryptococcus neoformans [2]) | MIC (Staphylococcus aureus [3]) | MIC (Candida albicans [4]) | MIC (Candida tropicalis) | MIC (Candida albicans [5]) | MIC (Rhodotorula mucilaginosa) | MIC (Candida parapsilosis) | MIC (Escherichia coli) | MIC (Cryptococcus neoformans [6]) | MIC (Candida albicans [7]) | MIC (Fusarium graminearum) | MIC (Staphylococcus aureus [8]) | IC50 (HeLa)
CCCCCCCCCCSC[C@H]1O[C@H](O[C@@H]2[C@@H](O)[C@H](O[C@H]3O[C@H](CN)[C@@H](O)[C@H](O)[C@H]3O)[C@@H](N)C[C@H]2N)[C@H](O)[C@@H](N)[C@@H]1O.Cl.Cl.Cl.Cl | 64 µg/mL | 64 µg/mL | 8 µg/mL | 64 µg/mL | 128 µg/mL | 128 µg/mL | 64 µg/mL | 4 µg/mL | 128 µg/mL | 64 µg/mL | 8 µg/mL | 64 µg/mL | 32 µg/mL | 32 µg/mL | –
CCCCCCCCCCCCCCNC[C@H]1O[C@H](O[C@@H]2[C@@H](O)[C@H](O[C@H]3O[C@H](CN)[C@@H](O)[C@H](O)[C@H]3O)[C@@H](N)C[C@H]2N)[C@H](O)[C@@H](N)[C@@H]1O.Cl.Cl.Cl.Cl.Cl | 16 µg/mL | 4 µg/mL | 2 µg/mL | 16 µg/mL | 8 µg/mL | 4 µg/mL | 8 µg/mL | 2 µg/mL | 4 µg/mL | 32 µg/mL | 2 µg/mL | 4 µg/mL | 2 µg/mL | 16 µg/mL | 60.8 µg/mL
CCCCCCNC[C@H]1O[C@H](O[C@@H]2[C@@H](O)[C@H](O[C@H]3O[C@H](CN)[C@@H](O)[C@H](O)[C@H]3O)[C@@H](N)C[C@H]2N)[C@H](O)[C@@H](N)[C@@H]1O.Cl.Cl.Cl.Cl.Cl | 64 µg/mL | > 256 µg/mL | 128 µg/mL | > 256 µg/mL | > 256 µg/mL | > 256 µg/mL | > 256 µg/mL | 128 µg/mL | > 256 µg/mL | 256 µg/mL | 128 µg/mL | > 256 µg/mL | 64 µg/mL | > 256 µg/mL | –
Cc1ccc(S(=O)(=O)OC[C@H]2O[C@H](O[C@@H]3[C@@H](O)[C@H](O[C@H]4O[C@H](CN)[C@@H](O)[C@H](O)[C@H]4O)[C@@H](N)C[C@H]3N)[C@H](O)[C@@H](N)[C@@H]2O)cc1.Cl.Cl.Cl.Cl | 32 µg/mL | > 256 µg/mL | > 256 µg/mL | > 256 µg/mL | > 256 µg/mL | > 256 µg/mL | > 256 µg/mL | 128 µg/mL | > 256 µg/mL | 16 µg/mL | > 256 µg/mL | > 256 µg/mL | 128 µg/mL | > 256 µg/mL | –
CCCCCCCCNC[C@H]1O[C@H](O[C@@H]2[C@@H](O)[C@H](O[C@H]3O[C@H](CN)[C@@H](O)[C@H](O)[C@H]3O)[C@@H](N)C[C@H]2N)[C@H](O)[C@@H](N)[C@@H]1O.Cl.Cl.Cl.Cl.Cl | 128 µg/mL | > 256 µg/mL | 16 µg/mL | > 256 µg/mL | > 256 µg/mL | > 256 µg/mL | > 256 µg/mL | 16 µg/mL | > 256 µg/mL | 256 µg/mL | 16 µg/mL | 256 µg/mL | 32 µg/mL | 128 µg/mL | –
CCCCCCCCCCCCNC[C@H]1O[C@H](O[C@@H]2[C@@H](O)[C@H](O[C@H]3O[C@H](CN)[C@@H](O)[C@H](O)[C@H]3O)[C@@H](N)C[C@H]2N)[C@H](O)[C@@H](N)[C@@H]1O.Cl.Cl.Cl.Cl.Cl | 64 µg/mL | 16 µg/mL | 2 µg/mL | 64 µg/mL | 32 µg/mL | 32 µg/mL | 64 µg/mL | 2 µg/mL | 32 µg/mL | 16 µg/mL | 2 µg/mL | 16 µg/mL | 2 µg/mL | 32 µg/mL | > 100 µg/mL
CCCCCCCCCCCCCCCCNC[C@H]1O[C@H](O[C@@H]2[C@@H](O)[C@H](O[C@H]3O[C@H](CN)[C@@H](O)[C@H](O)[C@H]3O)[C@@H](N)C[C@H]2N)[C@H](O)[C@@H](N)[C@@H]1O.Cl.Cl.Cl.Cl.Cl | 16 µg/mL | 4 µg/mL | 2 µg/mL | 32 µg/mL | 4 µg/mL | 4 µg/mL | 8 µg/mL | 2 µg/mL | 4 µg/mL | 32 µg/mL | 2 µg/mL | 4 µg/mL | 2 µg/mL | 32 µg/mL | 41.6 µg/mL
CCCCCCCCCCCCSC[C@H]1O[C@H](O[C@@H]2[C@@H](O)[C@H](O[C@H]3O[C@H](CN)[C@@H](O)[C@H](O)[C@H]3O)[C@@H](N)C[C@H]2N)[C@H](O)[C@@H](N)[C@@H]1O.Cl.Cl.Cl.Cl | 32 µg/mL | 16 µg/mL | 2 µg/mL | 32 µg/mL | 32 µg/mL | 32 µg/mL | 16 µg/mL | 2 µg/mL | 32 µg/mL | 16 µg/mL | 2 µg/mL | 16 µg/mL | 4 µg/mL | 16 µg/mL | > 100 µg/mL
CCCCCCCCCCNC[C@H]1O[C@H](O[C@@H]2[C@@H](O)[C@H](O[C@H]3O[C@H](CN)[C@@H](O)[C@H](O)[C@H]3O)[C@@H](N)C[C@H]2N)[C@H](O)[C@@H](N)[C@@H]1O.Cl.Cl.Cl.Cl.Cl | 128 µg/mL | 256 µg/mL | 8 µg/mL | 256 µg/mL | 256 µg/mL | > 256 µg/mL | > 256 µg/mL | 8 µg/mL | 256 µg/mL | 64 µg/mL | 8 µg/mL | 128 µg/mL | 32 µg/mL | 64 µg/mL | –
CCCCCCCCCCCCCCCCSC[C@H]1O[C@H](O[C@@H]2[C@@H](O)[C@H](O[C@H]3O[C@H](CN)[C@@H](O)[C@H](O)[C@H]3O)[C@@H](N)C[C@H]2N)[C@H](O)[C@@H](N)[C@@H]1O.Cl.Cl.Cl.Cl | 16 µg/mL | 4 µg/mL | 2 µg/mL | 32 µg/mL | 4 µg/mL | 4 µg/mL | 4 µg/mL | 2 µg/mL | 4 µg/mL | 32 µg/mL | 2 µg/mL | 4 µg/mL | 2 µg/mL | 16 µg/mL | 37.7 µg/mL
CCCCCCCCSC[C@H]1O[C@H](O[C@@H]2[C@@H](O)[C@H](O[C@H]3O[C@H](CN)[C@@H](O)[C@H](O)[C@H]3O)[C@@H](N)C[C@H]2N)[C@H](O)[C@@H](N)[C@@H]1O.Cl.Cl.Cl.Cl | 128 µg/mL | 256 µg/mL | 64 µg/mL | 256 µg/mL | > 256 µg/mL | > 256 µg/mL | 256 µg/mL | 32 µg/mL | > 256 µg/mL | 128 µg/mL | 128 µg/mL | 128 µg/mL | 128 µg/mL | 256 µg/mL | –
CCCCCCCCCCCCCCSC[C@H]1O[C@H](O[C@@H]2[C@@H](O)[C@H](O[C@H]3O[C@H](CN)[C@@H](O)[C@H](O)[C@H]3O)[C@@H](N)C[C@H]2N)[C@H](O)[C@@H](N)[C@@H]1O.Cl.Cl.Cl.Cl | 16 µg/mL | 8 µg/mL | 2 µg/mL | 16 µg/mL | 8 µg/mL | 4 µg/mL | 4 µg/mL | 2 µg/mL | 16 µg/mL | 16 µg/mL | 2 µg/mL | 4 µg/mL | 2 µg/mL | 16 µg/mL | 52.9 µg/mL
NC[C@H]1O[C@H](O[C@H]2[C@H](O)[C@@H](O[C@H]3O[C@H](CO)[C@@H](O)[C@H](N)[C@H]3O)[C@H](N)C[C@@H]2N)[C@H](O)[C@@H](O)[C@@H]1O [KANAMYCIN] | 4 µg/mL (≈ 8.26 µM) | – | ≥ 256 µg/mL | > 256 µg/mL | ≥ 256 µg/mL | – | ≥ 256 µg/mL | ≥ 256 µg/mL | – | 4 µg/mL (≈ 8.26 µM) | – | ≥ 256 µg/mL | ≥ 256 µg/mL | > 256 µg/mL | –
CCCCCCCCS(=O)(=O)OC[C@H]1O[C@H](O[C@@H]2[C@@H](O)[C@H](O[C@H]3O[C@H](CN)[C@@H](O)[C@H](O)[C@H]3O)[C@@H](N)C[C@H]2N)[C@H](O)[C@@H](N)[C@@H]1O | – | 32 µg/mL (≈ 48.4 µM) | 4 µg/mL (≈ 6.05 µM) | – | 16 µg/mL (≈ 24.2 µM) | 16 µg/mL (≈ 24.2 µM) | 16 µg/mL (≈ 24.2 µM) | 4 µg/mL (≈ 6.05 µM) | 16 µg/mL (≈ 24.2 µM) | – | 4 µg/mL (≈ 6.05 µM) | 16 µg/mL (≈ 24.2 µM) | 8 µg/mL (≈ 12.1 µM) | – | –
CCCCCCSC[C@H]1O[C@H](O[C@@H]2[C@@H](O)[C@H](O[C@H]3O[C@H](CN)[C@@H](O)[C@H](O)[C@H]3O)[C@@H](N)C[C@H]2N)[C@H](O)[C@@H](N)[C@@H]1O.Cl.Cl.Cl.Cl | 256 µg/mL | > 256 µg/mL | 64 µg/mL | > 256 µg/mL | > 256 µg/mL | > 256 µg/mL | > 256 µg/mL | 32 µg/mL | > 256 µg/mL | 128 µg/mL | 128 µg/mL | > 256 µg/mL | 256 µg/mL | > 256 µg/mL | –
